According to patent US7064243B2, “Screens and assays for agents useful in controlling parasitic nematodes” (Cambria Biosciences LLC, priority 2001, dated 2006):
“Also recorded” adds a separate entry of the source. Read-outs that look alike come from different tables or passages of the source.

Columns and labels:
[1] = test system: secretion of the VAP-1-Myc fusion protein; experiment: Secretion assay: immunoblot (anti-Myc) of VAP-1-Myc in conditioned axenic media of worms bearing the vap-1::myc transgene; format: in vivo, C. elegans; conditions: various concentrations, 16 hours, 24 well plates, dose-dependent fashion (FIG. 8)
Method: Worms (either animals bearing the vap-1::myc transgene or unc-119 (e2498) mutants rescued with plasmid pPD#MM016B as a negative control) were cultured in S basal medium (recipe below) containing HB101 bacteria as a food source for 4–5 days as described below. The worms were separated from the media by centrifugation and washed several times in S basal media. Worms were then resuspended in 50 ml of axenic media (recipe below) and cultured overnight (˜20 h). A vessel containing only axenic media without worms was maintained under identical conditions as a control. The worm density in both the vap-1::myc and unc-119 cultures was approximately 50,000 per ml. It was estimated that 50–70% of the worms carry the transgene.
After overnight incubation in axenic media, the worms and media were separated by centrifugation (see below for details) and the media were concentrated using Centriprep 30 concentrators (see below for details). […]
To determine the effect of 4,7 phenanthroline on secretion of the VAP-1-Myc fusion protein, worms (either transformation control or bearing the vap-1::myc transgene) were cultured in 24 well plates (in a manner similar to the 96 well scaledown protocol described below) in axenic media in the presence of various concencentrations of 4,7 phenanthroline for 16 hours. […] VAP-1-Myc fusion protein was detected with anti-Myc antibody as described above.

A. caninum L3 larvae = conditions: in vivo; cited from earlier work
ASP-1 release = conditions: hookworm larvae, cited from earlier work

In the case of `c1cnc2ccc3ncccc3c2c1` [4,7-phenanthroline], the “secretion of the VAP-1-Myc fusion protein” value [1] is listed as “inhibited”, the “resumption of larval hookworm development” value (A. caninum L3 larvae) is listed as “blocked” and the “release of ASP-1” value (ASP-1 release) is listed as “known inhibitor; also recorded: blocked”. For the same compound, the “release of ASP-1” value (ASP-1 release; listed as 4,7 phenanthroline) was “known inhibitor”.
